From patent publication US9822344B2, “Method for culturing pluripotent stem cells” (OSAKA UNIVERSITY, priority 2012, dated 2017)

How the values were obtained:
Type in all cases: cell-based, human
iPS cells: Tic (Np 39) [1] = assay: Influences of feeder-free culture on iPS cells: Rac-1 inhibitor added; settings: Rac-1 inhibitor 100 or 150 μM at day 3 (FIG. 19: 150 μM), Synthemax Surface
Experimental: (§1) Synthemax Surface (trade name, manufactured by Corning Inc.) was used as a culture surface, and iPS cells were seeded thereover. The culture medium was exchanged with a maintenance medium every 24 hours until day 7. After the culture, the expression of Oct3/4 of the cultured cells was confirmed by immunocytostaining, and DAPI staining was performed. The used cells and media, as well as the culture conditions are as follows.
mTeSR (Trade Mark) 1 medium (trade name, manufactured by STEMCELL, Technologies)
Next, cells were cultured and observed in the same manner as those described above except that the Rac-1 inhibitor was added at 100 or 150 μM at three days after the start of the culture (day 3). Micrographs obtained are illustrated in FIG. 19. FIG. 19 illustrates micrographs obtained in the case where the Rac-1 inhibitor was 150 μM.

iPS cells = assay: Rac-1 inhibitor added in culture on SNL feeder cells; settings: Rac-1 inhibitor 50 or 100 μM added at day 3, same as without inhibitor
Experimental: Culture was performed by using SNL feeder cells as the feeder cells and adding the Rac-1 inhibitor (50 or 100 μM) at three days after the culture start (day 3).

iPS cells: Tic (Np 39) [2] = assay: Influences of feeder cells on iPS cells: Rac-1 inhibitor added in culture on MEF feeder cells; settings: Rac-1 inhibitor 50, 100, or 150 μM added at day 3, outer edge part without inhibitor
Experimental: as §1, with “On feeder cells,” for “Synthemax Surface (trade name, manufactured by Corning Inc.) was used as a culture surface, and”, “seeded, and the” for “seeded thereover. The”
iPS cells: Repro Stem (trade name, manufactured by ReproCELL J, Inc.), 5 ng/mL FGF-2
Micrographs obtained are illustrated in FIG. 17.
Next, cells were cultured and observed in the same manners as those described above except that a Rac-1 inhibitor (trade name: NSC23766, Calbiochem brand), which is a migration inhibitor, was added at 50, 100, or 150 μM at three days after the start of the culture (day 3). The obtained micrographs are illustrated in FIG. 17.
Dilution of Rac-1 inhibitor: the Rac-1 inhibitor was diluted by using a medium (Repro Stem) (final concentration: 50 or 100 μM).
Further, bFGF (trade name, manufactured by ReproCELL, Inc., final concentration 5 ng/ml) was added thereto, and the Rac-1 inhibitor thus diluted was added to iPS cells.

In the case of `CCN(CC)CCCC(C)Nc1nc(C)cc(Nc2ccc3nc(C)cc(N)c3c2)n1` (racemic) [Rac-1 inhibitor], the “Part of the colony where deviated cells emerge” value (iPS cells: Tic (Np 39) [1]) is reported as “allowed deviated cells to emerge in the center part of a colony”, the “Part of the colony where deviated cells grew” value (iPS cells) is reported as “Deviated cells grew in the center part of a colony” and the “Part of the colony where deviated cells emerge” value (iPS cells: Tic (Np 39) [2]) is reported as “emerge in the center part of the colony”.
